Where “and” joins values, the source holds several entries; their conditions need not be identical. Equal entries are not always repeated. Where two headings read alike, the source gives them in different places.
How the values were obtained:
[1] = Blood-brain barrier experiment, brain and plasma concentrations after IV dosing; type: in vivo, CD-1 mice; settings: for half-life: read-out: T½ (converted)
Protocol: Three CD-1 […] were administered 1 mg/kg of the test compound intravenously at each time point. Blood and brain tissue were collected at 5 min, 15 min, 1 h, 2 h, 4 h and 8 h after administration.

[2] = test system: DLD-1 WT (wild type) cells; assay: Clonogenic assay, DLD-1 WT; type: cell-based; settings: Homo sapiens, 3 h
Protocol: (§1) The following PSN-1 cells, PANC1 cells, MiaPaCa-2 cells, H460 cells, DLD-1 WT (wild type) cells, DLD-1 BRCA2 KO (BRCA2 deletion) cells were seeded in 10 cm vitreous cell culture plates at specific cell numbers and incubated for 2 days at 37° C. and under the conditions of 5% CO2, 95% air and 100% relative humidity. On day 3, test compounds TH302 or AST-002-P2 at the specific concentrations were added to the cells, and incubated for 3 hours together with the cells under normoxic (21% O2) and hypoxic conditions (<0.01% O2), respectively. After cells were stimulated by compounds, the cells were washed once with 1×PBS and digested into single cells with pancreatic enzymes for cell counting. The above cells in specific cell numbers were reseeded in a new culture plate and cultured for 7 days to perform single cell colony formation. When single cells in compound culture plates stimulated under normoxic conditions proliferated to about 50 cells, the cultures were removed and stained with 0.5% crystal violet for 40 minutes. After staining, cells were counted for colonies using Colony Counter (VWR) and the IC90 was calculated.

[3] = test system: MiaPaCa-2 cells; assay: Clonogenic assay, MiaPaCa-2; type: cell-based, human; settings: for IC90: Homo sapiens, MIA PaCa-2, 3 h
Protocol: as §1

[4] = test system: PANC1 cells; assay: Clonogenic assay, PANC1; type: cell-based, human; settings: Homo sapiens, PANC-1, 3 h
Protocol: as §1

[5] = test system: DLD-1 BRCA2 KO (BRCA2 deletion) cells; assay: Clonogenic assay, DLD-1 BRCA2 KO; type: cell-based; settings: for IC90: Homo sapiens, 3 h
Protocol: as §1

[6] = Plasma stability, mouse; type: in vitro ADME
Protocol: The pH of the plasma was checked and recorded. Note: a.
The final concentration of solvent was 0.5%.
The assay is performed in duplicate.

[7] = CD-1, mouse, plasma, IV 1 mg/kg
[8] = IV 1 mg/kg, 0.083 h, single animals, 1 mg/kg
[9] = IV 1 mg/kg, 0.25 h, single animals, 1 mg/kg
[10] = IV 1 mg/kg, 1 h, single animals, 1 mg/kg
[11] = IV 1 mg/kg, 2 h, single animals, 1 mg/kg
[12] = IV 1 mg/kg, 4 h, single animals
[13] = IV 1 mg/kg, 8 h, single animals
[14] = 21% O2, read-out: IC90 Normoxia
[15] = <0.01% O2, read-out: IC90 Hypoxia
[16] = IC90 ratio normoxic/N2, listed as compound C

`O=[N+]([O-])c1ccc([C@@H](OP(=O)(N2CC2)N2CC2)C(F)(F)F)c2ccccc12` (single isomer, unassigned) [Compound C] gave a concentration at 0.083 h ([1]; CD-1, mouse, brain, iv, 1 mg/kg, IV 1 mg/kg, 0.083 h, single animals, read-out: Brain concentration) of 415 ng/g, a concentration at 0.25 h ([1]; CD-1, mouse, brain, iv, 1 mg/kg, IV 1 mg/kg, 0.25 h, single animals, read-out: Brain concentration) of 146 ng/g and a concentration at 1 h ([1]; CD-1, mouse, brain, iv, 1 mg/kg, IV 1 mg/kg, 1 h, single animals, read-out: Brain concentration) of 28.6 ng/g. For the same compound, the Kp at 0.083 h ([1]; CD-1, mouse, brain/plasma, iv, 1 mg/kg, IV 1 mg/kg, 0.083 h, read-out: Mean Ratio (Brain/Plasma)) was 1.07, the Kp at 0.083 h ([1]; CD-1, mouse, brain/plasma, iv, 1 mg/kg, IV 1 mg/kg, 0.083 h, single animals, read-out: Ratio (Brain/Plasma)) was 0.99 and the Kp at 0.25 h ([1]; CD-1, mouse, brain/plasma, iv, 1 mg/kg, IV 1 mg/kg, 0.25 h, single animals, read-out: Ratio (Brain/Plasma)) was 0.82. It also gave a Kp at 1 h ([1]; CD-1, mouse, brain/plasma, iv, 1 mg/kg, IV 1 mg/kg, 1 h, read-out: Mean Ratio (Brain/Plasma)) of 0.54, a Kp at 1 h ([1]; CD-1, mouse, brain/plasma, iv, 1 mg/kg, IV 1 mg/kg, 1 h, single animals, read-out: Ratio (Brain/Plasma)) of 0.52 and a Kp at 2 h ([1]; CD-1, mouse, brain/plasma, iv, 1 mg/kg, IV 1 mg/kg, 2 h, read-out: Mean Ratio (Brain/Plasma)) of 1.11. The Kp ([1]; CD-1, mouse, brain/plasma, iv, 1 mg/kg, IV 1 mg/kg, read-out: AUClnf Ratio (Brain/Plasma)) was 0.73, the concentration at 0.083 h ([1]; CD-1, mouse, plasma, iv, 1 mg/kg, IV 1 mg/kg, 0.083 h, single animals, read-out: Plasma concentration) was 417 ng/mL and the concentration at 0.25 h ([1]; CD-1, mouse, plasma, iv, 1 mg/kg, IV 1 mg/kg, 0.25 h, single animals, read-out: Plasma concentration) was 179 ng/mL. The half-life ([1]; CD-1, mouse, brain tissue, IV 1 mg/kg) was 21 min, the AUC(0-t) [1, 7] was 188 ng·h/mL and the C0 [1, 7] was 694 ng/mL. The half-life [1, 7] was 18 min, the Brain concentration [1, 8] was 541.99 ng/g and 377.29 ng/g and the Plasma concentration [1, 8] was 390.41 ng/mL and 456.85 ng/mL. For the same compound, the “Ratio (Brain/Plasma)” value [1, 8] was 1.39 and 0.83, the Brain concentration [1, 9] was 131.63 ng/g and 120.75 ng/g and the Plasma concentration [1, 9] was 132.02 ng/mL and 154.92 ng/mL. For the same compound, the “Ratio (Brain/Plasma)” value [1, 9] was 1.00 and 0.78, the Brain concentration [1, 10] was 18.01 ng/g and 15.01 ng/g and the Plasma concentration [1, 10] was 54.81 ng/mL and 25.61 ng/mL and 37.23 ng/mL. The “Ratio (Brain/Plasma)” value [1, 10] was 0.70 and 0.40, the Brain concentration [1, 11] was 8.31 ng/g and 1.90 ng/g and BLOQ and the Plasma concentration [1, 11] was 4.69 ng/mL and 2.16 ng/mL and 1.64 ng/mL. The “Ratio (Brain/Plasma)” value [1, 11] was 0.88, the Brain concentration [1, 12] was “BLOQ” and the Plasma concentration [1, 12] was “BLOQ”. The Brain concentration [1, 13] was “BLOQ”, the Plasma concentration [1, 13] was “BLOQ” and the AUClast ([1]; brain tissue, IV 1 mg/kg) was 136.59 ng·h/g. For the same compound, the AUClnf ([1]; brain tissue, IV 1 mg/kg) was 138.68 ng·h/g, the MRTlnf_obs ([1]; brain tissue, IV 1 mg/kg) was 20.4 min and the blood-brain barrier penetration ([1]; detected in brain tissue) was “can penetrate the blood-brain barrier”. It also gave a Cl_obs ([1]; plasma, IV 1 mg/kg) of 87.92 mL/min/kg, an MRTlnf_obs ([1]; plasma, IV 1 mg/kg) of 19.8 min and a Vss_obs ([1]; plasma, IV 1 mg/kg) of 1.73 L/kg. It also gave an IC90 [2, 14] of over 140 nM, an IC90 [2, 15] of over 140 nM and an IC90 [3, 14] of over 10000 nM. The IC90 [3, 15] was 159 nM, the HCR ([3]; IC90 ratio normoxic/N2) was over 63 and the HCR [3, 16] was over 63. For the same compound, the IC90 [4, 14] was over 10000 nM, the IC90 [4, 15] was over 1000 nM and the IC90 [5, 14] was over 10000 nM. It also gave an IC90 [5, 15] of 112 nM, an HCR ([5]; IC90 ratio normoxic/N2) of over 89 and an HCR [5, 16] of over 89.

In the case of `CC(OP(=O)(N1CC1)N1CC1)c1ccc([N+](=O)[O-])c2ccccc12` (centres unmarked) [Compound D], the Remaining percentage ([6]; Mouse plasma, after 30 minutes) is reported as 87.35% and the “plasma stability” value ([6]; mouse plasma) is reported as “relatively unstable”.

From patent publication US20230339991A1, “HYPOXIA-ACTIVATED DNA ALKYLATING AGENT AND MEDICAL USE THEREOF” (ASCENTAWITS PHARMACEUTICALS, LTD., priority 2020, published 2023)
